Results: patent US7446201B2, “Substituted heteroaryl benzofuran acids” (Wyeth, priority 2003, dated 2008)
Structures can show the parent of a compound that is named as a salt.

How the values were obtained:
[1] = molecular target: T1, recombinant human plasminogen activator inhibitor-1 (PAI-1) (Homo sapiens, UniProt P05121); assay: Primary Screen for the PAI-1 Inhibition; assay type: biochemical; settings: for IC50: footnote b: determined by a modification of the Primary Screen for PAI-1 Inhibition; for inhibition at 25 µM: 25 μM test compound
T1 construct: purchased Molecular Innovations, Royal Oak, Mich
Description: Test compounds are dissolved in DMSO at a final concentration of 10 mM, then diluted 100× in physiologic buffer. The inhibitory assay is initiated by the addition of the test compound (1-100 μM final concentration, maximum DMSO concentration of 0.2%) in a pH 6.6 buffer containing 140 nM recombinant human plasminogen activator inhibitor-1 (PAI-1; Molecular Innovations, Royal Oak, Mich.). Following a 1 hour incubation at room temperature, 70 nM of recombinant human tissue plasminogen activator (tPA) is added, and the combination of the test compound, PAI-1 and tPA is incubated for an additional 30 minutes. Following the second incubation, Spectrozyme-tPA (American Diagnostica, Greenwich, Conn.), a chromogenic substrate for tPA, is added and absorbance read at 405 nm at 0 and 60 minutes. Relative PAI-1 inhibition is equal to the residual tPA activity in the presence of the test compound and PAI-1. Control treatments include the complete inhibition of tPA by PAI-1 at the molar ratio employed (2:1), and the absence of any effect of the test compound on tPA alone.

human PAI-1 = human PAI-1 (Homo sapiens, UniProt P05121); assay: Assay for Determining IC50 of Inhibition of PAI-1 (Antibody Assay); assay type: binding; settings: footnote a: determined by the Antibody Assay
Description: This assay is based upon the non-SDS dissociable interaction between tPA and active PAI-1. Assay plates are initially coated with human tPA (10 μg/ml). Test compounds are dissolved in DMSO at 10 mM, then diluted with physiologic buffer (pH 7.5) to a final concentration of 1-50 μM. Test compounds are incubated with human PAI-1 (50 ng/ml) for 15 minutes at room temperature. The tPA-coated plate is washed with a solution of 0.05% Tween 20 and 0.1% BSA, then the plate is blocked with a solution of 3% BSA. An aliquot of the test compound/PAI-1 solution is then added to the tPA-coated plate, incubated at room temperature for 1 hour, and washed. Active PAI-1 bound to the plate is assessed by adding an aliquot of a 1:1000 dilution of the 33B8 monoclonal antibody against human PAI-1, and incubating the plate at room temperature for 1 hour (Molecular Innovations, Royal Oak, Mich.). […] The plate is incubated 45 minutes at room temperature, and color development is determined at OD405 nm. The quantitation of active PAI-1 bound to tPA at varying concentrations of test compound is used to determine the IC50. Results are analyzed using a logarithmic best-fit equation. The assay sensitivity is 5 ng/ml of human PAI-1 as determined from a standard curve ranging from 0-100 ng/ml.

T1 sequence (P05121 24-402): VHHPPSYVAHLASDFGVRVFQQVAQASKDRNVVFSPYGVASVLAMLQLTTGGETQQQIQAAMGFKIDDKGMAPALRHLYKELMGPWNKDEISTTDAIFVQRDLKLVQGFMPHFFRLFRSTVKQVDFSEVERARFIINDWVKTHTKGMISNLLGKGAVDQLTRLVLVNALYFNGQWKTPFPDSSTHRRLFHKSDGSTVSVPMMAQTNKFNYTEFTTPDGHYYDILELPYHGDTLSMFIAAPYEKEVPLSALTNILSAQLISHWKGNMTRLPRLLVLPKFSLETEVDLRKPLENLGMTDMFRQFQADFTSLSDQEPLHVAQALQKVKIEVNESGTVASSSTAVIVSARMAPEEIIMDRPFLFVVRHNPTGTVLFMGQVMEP
Chain of human PAI-1 (P05121 24-402): as above

Compound | melting point | further results
c1ccc(-c2c(-c3ccc(OCc4nnn[nH]4)c4ncccc34)oc3ccccc23)cc1 (as salt: salt) [Compound 4, 5-(3-Phenyl-1-benzofuran-2-yl)-8-quinolinyl 1H-tetraazol-5-ylmethyl ether] | > 273 °C (dec.) | 
CCCCCc1c(-c2ccc(OCc3nnn[nH]3)c3ncccc23)oc2ccccc12 (as salt: salt) [Compound 5, 5-(3-Pentyl-1-benzofuran-2-yl)-8-(1H-tetraazol-5-ylmethoxy)quinoline] | 226 to 228 °C (dec.) | 
CCCCCc1c(-c2ccc(OCc3nnn[nH]3)c3ncccc23)oc2ccccc12 [Compound 5, 5-(3-Pentyl-1-benzofuran-2-yl)-8-(1H-tetraazol-5-ylmethoxy)quinoline] |  | IC50 [1]: 8.1 µM
CCCCCc1c(-c2ccc3nc(C(F)(F)F)cc(OCc4nnn[nH]4)c3c2)oc2ccccc12 [Compound 2, 6-(3-Pentyl-1-benzofuran-2-yl)-4-(1H-tetraazol-5-ylmethoxy)-2-(trifluoromethyl)-quinoline] | 207 to 209 °C (dec.) | IC50 (human PAI-1): 21.5 µM
FC(F)(F)c1cc(OCc2nnn[nH]2)c2cc(-c3cc4ccccc4o3)ccc2n1 [Compound 1, 6-(1-Benzofuran-2-yl)-2-(trifluoromethyl)quinolin-4-yl 1H-tetraazol-5-ylmethyl ether] | > 225 °C (dec.) | IC50 [1]: 38.6 µM
c1ccc(-c2c(-c3ccc(OCc4nnn[nH]4)c4ncccc34)oc3ccccc23)cc1 [Compound 4, 5-(3-Phenyl-1-benzofuran-2-yl)-8-quinolinyl 1H-tetraazol-5-ylmethyl ether] |  | inhibition at 25 µM [1]: 55%
c1ccc2oc(-c3ccc(OCc4nnn[nH]4)c4ncccc34)cc2c1 [Compound 3, 5-(1-Benzofuran-2-yl)-8-(1H-tetraazol-5-ylmethoxy)quinoline] |  | inhibition at 25 µM [1]: 20%
c1ccc2oc(-c3ccc(OCc4nnn[nH]4)c4ncccc34)cc2c1 (as salt: salt) [Compound 3, 5-(1-Benzofuran-2-yl)-8-(1H-tetraazol-5-ylmethoxy)quinoline] | > 240 °C (dec.) | 
